# Laboratory results published in US9173882B2, “Polycyclic heteroaryl substituted triazoles useful as Axl inhibitors” (Rigel Pharmaceuticals, Inc., priority 2008, dated 2015).
# Molecular target: T1, Axl (Homo sapiens, UniProt P30530)
# T1 construct: endogenous in cells; host or cells: HeLa cells
# T1 sequence (P30530 26-894): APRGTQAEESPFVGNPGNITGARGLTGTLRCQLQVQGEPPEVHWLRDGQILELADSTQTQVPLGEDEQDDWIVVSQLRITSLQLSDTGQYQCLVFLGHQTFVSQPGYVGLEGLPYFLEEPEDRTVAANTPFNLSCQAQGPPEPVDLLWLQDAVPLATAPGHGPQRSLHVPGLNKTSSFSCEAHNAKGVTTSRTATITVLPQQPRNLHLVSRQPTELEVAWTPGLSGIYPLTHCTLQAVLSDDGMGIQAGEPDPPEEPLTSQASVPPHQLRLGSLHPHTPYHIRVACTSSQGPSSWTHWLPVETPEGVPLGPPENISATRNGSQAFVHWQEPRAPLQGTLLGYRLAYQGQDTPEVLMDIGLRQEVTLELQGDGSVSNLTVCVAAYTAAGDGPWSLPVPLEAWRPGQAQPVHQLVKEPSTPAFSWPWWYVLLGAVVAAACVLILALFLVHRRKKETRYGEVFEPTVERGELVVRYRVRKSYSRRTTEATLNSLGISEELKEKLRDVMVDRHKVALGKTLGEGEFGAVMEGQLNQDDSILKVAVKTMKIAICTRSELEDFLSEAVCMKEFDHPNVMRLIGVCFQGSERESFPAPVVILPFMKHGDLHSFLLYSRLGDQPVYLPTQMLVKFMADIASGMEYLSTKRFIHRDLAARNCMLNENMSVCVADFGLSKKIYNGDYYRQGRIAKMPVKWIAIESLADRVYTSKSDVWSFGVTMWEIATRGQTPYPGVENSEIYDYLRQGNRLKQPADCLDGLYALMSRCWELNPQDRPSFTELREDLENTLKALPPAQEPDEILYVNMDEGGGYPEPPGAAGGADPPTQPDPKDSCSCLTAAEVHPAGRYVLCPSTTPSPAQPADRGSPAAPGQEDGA
# Test: Phospho-Akt in-cell Western assay
# Format: cell-based
# Details: Hela cells, stimulated by Axl-antibody cross-linking, phospho-Akt chemiluminescence; Table 1, formula (Ia)
# Outline: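 HeLa cells on poly-L-lysine, starved 24 h in 0.5% FCS with 500 ng/mL Axl/Fc, pre-treated with compound 1 hr at 37° C, then stimulated 5 min by cross-linked anti-Axl antibody clusters. Fixed cells probed for phospho-Akt by in-cell Western with HRP chemiluminescence, read within 10 min.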
row,SMILES,IC50 [µM]
1,"CCN(CC)[C@H]1CCc2ccc(Nc3nc(N)n(-c4cc5c(nn4)-c4cccnc4CCC5)n3)cc2CC1 [Compound 48, 1-(6,7-dihydro-5H-pyrido[2′,3′:6,7]cyclohepta[1,2-c]pyridazin-3-yl)-N^3-((7S)-7-(diethylamino)-6,7,8,9-tetrahydro-5H-benzo[7]annulene-2-yl)-1H-1,2,4-triazole-3,5-diamine]",< 1
2,"CCCN(CCC)[C@H]1CCc2ccc(Nc3nc(N)n(-c4cc5c(nn4)-c4cccnc4CCC5)n3)cc2CC1 [Compound 49, 1-(6,7-dihydro-5H-pyrido[2′,3′:6,7]cyclohepta[1,2-c]pyridazin-3-yl)-N^3-((7S)-7-(dipropylamino)-6,7,8,9-tetrahydro-5H-benzo[7]annulene-2-yl)-1H-1,2,4-triazole-3,5-diamine]",< 1
3,"Nc1nc(Nc2ccc3c(c2)CC[C@@H](N(CC2CC2)CC2CC2)CC3)nn1-c1cc2c(nn1)-c1cccnc1CCC2 [Compound 50, 1-(6,7-dihydro-5H-pyrido[2′,3′:6,7]cyclohepta[1,2-c]pyridazin-3-yl)-N^3-((7S)-7-(di(cyclopropylmethyl)amino)-6,7,8,9-tetrahydro-5H-benzo[7]annulene-2-yl)-1H-1,2,4-triazole-3,5-diamine]",< 1
4,"CC(C)CCN(CCC(C)C)[C@H]1CCc2ccc(Nc3nc(N)n(-c4cc5c(nn4)-c4cccnc4CCC5)n3)cc2CC1 [Compound 51, 1-(6,7-dihydro-5H-pyrido[2′,3′:6,7]cyclohepta[1,2-c]pyridazin-3-yl)-N^3-((7S)-7-(di(3-methylbutyl)amino)-6,7,8,9-tetrahydro-5H-benzo[7]annulene-2-yl)-1H-1,2,4-triazole-3,5-diamine]",1 to 10
5,"Nc1nc(Nc2ccc3c(c2)CC[C@@H](NC2CCC2)CC3)nn1-c1cc2c(nn1)-c1cccnc1CCC2 [Compound 52, 1-(6,7-dihydro-5H-pyrido[2′,3′:6,7]cyclohepta[1,2-c]pyridazin-3-yl)-N^3-((7S)-7-(cyclobutylamino)-6,7,8,9-tetrahydro-5H-benzo[7]annulene-2-yl)-1H-1,2,4-triazole-3,5-diamine]",< 1
6,"Nc1nc(Nc2ccc3c(c2)CC[C@@H](NC2CCCCC2)CC3)nn1-c1cc2c(nn1)-c1cccnc1CCC2 [Compound 53, 1-(6,7-dihydro-5H-pyrido[2′,3′:6,7]cyclohepta[1,2-c]pyridazin-3-yl)-N^3-((7S)-7-(cyclohexylamino)-6,7,8,9-tetrahydro-5H-benzo[7]annulene-2-yl)-1H-1,2,4-triazole-3,5-diamine]",< 1
7,"CC(C)N[C@H]1CCc2ccc(Nc3nc(N)n(-c4cc5c(nn4)-c4cccnc4CCC5)n3)cc2CC1 [Compound 54, 1-(6,7-dihydro-5H-pyrido[2′,3′:6,7]cyclohepta[1,2-c]pyridazin-3-yl)-N^3-((7S)-7-((methylethyl)amino)-6,7,8,9-tetrahydro-5H-benzo[7]annulene-2-yl)-1H-1,2,4-triazole-3,5-diamine]",< 1
